Like-named read-outs stand apart in the source and are kept apart here.
Key:
Format in all cases: in vivo
[1] = test system: Pyricularia oryzae (rice blast); test: whole plant or invertebrate; settings: for RICE BLAST: disease control rating, foliar spray on rice, 400 ppm (+++ at 100 ppm)
[2] = test system: Puccinia recondita tritici (leaf rust); test: Test 1 greenhouse foliar spray screen, leaf rust on wheat; settings: for LEAF RUST: disease control rating, foliar spray on wheat, 400 ppm (+++ at 100 ppm)
[3] = test system: southern armyworm (Spodopetra eridania Cramer); test: Mite/insect screen, SAW; settings: Spodoptera eridania, percent mortality, read-out: SAW RESULTS %
Method: (§1) The compounds of Examples 1-295 were tested for miticidal and insecticidal activity in the following mite/insect screen.
(§2) Each test compound was formulated by dissolving the compound in acetone/alcohol (50:50) mixture containing 23 g of "TOXIMUL R" (sulfonate/nonionic emulsifier blend) and 13 g of "TOXIMUL S" (sulfonate/nonionic emulsifier blend) per liter. These mixtures were then diluted with water to give the indicated concentrations.
(§3) Other plants in the same treatment pot were left uninfested. The leaves were then sprayed with 5 ml of test solution using a DeVilbiss atomizing sprayer at 10 psi. Both surfaces of the leaves were covered until runoff, and then allowed to dry for one hour. Two uninfested leaves were then excised and placed into a Petri dish containing southern armyworm (Spodopetra eridania Cramer).
(§4) After standard exposure periods, percent mortality was evaluated. […]

[4] = test system: Twospotted spider mites (Tetranychus urticae Koch); test: Mite/insect screen, SM; settings: Tetranychus urticae, percent mortality, read-out: SM RESULTS %
Method: as §1, §2, §3, §4

[5] = test system: Erysiphe graminis tritici (powdery mildew); test: Test 1 greenhouse foliar spray screen, powdery mildew on wheat; settings: for POWD MDEW: disease control rating, foliar spray on wheat, 400 ppm (+++ at 100 ppm)
[6] = test system: Pseudoperonospora cubensis (downy mildew); test: Test 1 greenhouse foliar spray screen, downy mildew on squash; settings: disease control rating, foliar spray on squash, 400 ppm (+++ at 100 ppm)
[7] = test system: Botrytis cinerea (gray mold); test: Test 1 greenhouse foliar spray screen, gray mold on grape berries; settings: for GRAY MOLD: disease control rating, spray on grape berries, 400 ppm (+++ at 100 ppm)
corn rootworm = test: Mite/insect screen, CRW; settings: percent mortality, read-out: CRW RESULTS %
Method: as §1, §2, §4

[8] = test system: melon aphids (Aphis gossypii Glover); test: Mite/insect screen, MA; settings: Aphis gossypii, percent mortality, read-out: MA RESULTS %
Method: as §1, §2, §3, §4

[9] = foliar, rate 200 ppm, foliar spray on squash
[10] = foliar, rate 400 ppm, foliar spray on squash

Row | SMILES | RICE BLAST [1] | LEAF RUST [2] | mortality at 200 ppm ([3]; SAW, SM & MA RATE 200 PPM) [%] | mortality at 200 ppm ([4]; SAW, SM & MA RATE 200 PPM) [%] | POWD MDEW [5] | DOWN MDEW [6] | GRAY MOLD [7] | mortality at 12 ppm (corn rootworm; CRW RATE 12.00 PPM) [%] | mortality at 200 ppm ([8]; SAW, SM & MA RATE 200 PPM) [%] | mortality at 400 ppm ([3]; SAW, SM & MA RATE 400 PPM) [%] | mortality at 400 ppm ([4]; SAW, SM & MA RATE 400 PPM) [%] | mortality at 24 ppm (corn rootworm; CRW RATE 24.00 PPM) [%] | mortality at 400 ppm ([8]; SAW, SM & MA RATE 400 PPM) [%] | other results
1 | CCc1cccc2c(NCCc3ccccc3)ccnc12 [Example 29, 8-ethyl-N-(2-phenylethyl)-4-quinolinamine] | + (20-89% control at 400 ppm) | + (20-89% control at 400 ppm) | 0 | 0 | - (0-19% control at 400 ppm) | - (0-19% control at 400 ppm) | - (0-19% control at 400 ppm) | 0 | 0 | – | – | – | – | –
2 | Clc1ccc(CCNc2ccnc3cc(Cl)ccc23)cc1 [Example 37, 7-chloro-N-[2-(4-chlorophenyl)ethyl]-4-quinolinamine] | - (0-19% control at 400 ppm) | + (20-89% control at 400 ppm) | 0 | 0 | + (20-89% control at 400 ppm) | + (20-89% control at 400 ppm) | - (0-19% control at 400 ppm) | 0 | 0 | 0 | 0 | 0 | 0 | –
3 | Fc1cc(F)c2nccc(NCCc3ccc(-c4ccccc4)cc3)c2c1 [Example 40, 6,8-difluoro-N-(2-[1,1'-biphenyl]-4-ylethyl)-4-quinolinamine] | ++ (90-100% control at 400 ppm) | +++ (90-100% control at 100 ppm) | 0 | 0 | - (0-19% control at 400 ppm) | + (20-89% control at 400 ppm) | - (0-19% control at 400 ppm) | 0 | 0 | 80 | 0 | 100 | 0 | –
4 | FC(F)(F)c1ccc2c(NCCc3ccc(Cl)cc3)ccnc2c1 [Example 47, N-[2-(4-chlorophenyl)ethyl]-7-(trifluoromethyl)-4-quinolinamine] | - (0-19% control at 400 ppm) | + (20-89% control at 400 ppm) | 0 | 0 | + (20-89% control at 400 ppm) | + (20-89% control at 400 ppm) | - (0-19% control at 400 ppm) | 0 | 0 | 0 | 0 | 0 | 0 | –
5 | Cc1ccc(CCNc2ccnc3ccc(C)cc23)cc1 [Example 58, 6-methyl-N-[2-(4-methylphenyl)ethyl]-4-quinolinamine] | - (0-19% control at 400 ppm) | + (20-89% control at 400 ppm) | – | – | - (0-19% control at 400 ppm) | +++ (90-100% control at 100 ppm) | - (0-19% control at 400 ppm) | – | – | 0 | 0 | 0 | 0 | –
6 | Clc1ccc(CCNc2ccnc3cc(Cl)cc(Cl)c23)cc1 [Example 59, 5,7-dichloro-N-[2-(4-chlorophenyl)ethyl]-4-quinolinamine] | + (20-89% control at 400 ppm) | - (0-19% control at 400 ppm) | 0 | 0 | + (20-89% control at 400 ppm) | - (0-19% control at 400 ppm) | - (0-19% control at 400 ppm) | 0 | 0 | 0 | 0 | 0 | 0 | –
7 | Clc1ccc2c(NCCc3cccc(Oc4ccccc4)c3)ccnc2c1 [Example 60, 7-chloro-N-[2-(3-phenoxyphenyl)ethyl]-4-quinolinamine] | +++ (90-100% control at 100 ppm) | ++ (90-100% control at 400 ppm) | 0 | 0 | ++ (90-100% control at 400 ppm) | +++ (90-100% control at 100 ppm) | - (0-19% control at 400 ppm) | 0 | 0 | 0 | 0 | 0 | 0 | –
8 | Cc1cccc2c(NCCc3ccc(Cl)cc3)ccnc12 [Example 61, 8-methyl-N-[2-(4-chlorophenyl)ethyl]-4-quinolinamine] | ++ (90-100% control at 400 ppm) | ++ (90-100% control at 400 ppm) | 0 | 0 | - (0-19% control at 400 ppm) | +++ (90-100% control at 100 ppm) | - (0-19% control at 400 ppm) | 0 | 0 | 0 | 0 | 0 | 0 | –
9 | Fc1cccc2c(NCCc3ccccc3Oc3ccccc3)ccnc12 [Example 63, 8-fluoro-N-[2-(2-phenoxyphenyl)ethyl]-4-quinolinamine] | + (20-89% control at 400 ppm) | +++ (90-100% control at 100 ppm) | – | – | - (0-19% control at 400 ppm) | ++ (90-100% control at 400 ppm) | - (0-19% control at 400 ppm) | – | – | 0 | 0 | 0 | 0 | –
10 | Cc1ccc2c(NCCc3ccccc3Oc3ccccc3)ccnc2c1C [Example 64, 7,8-dimethyl-N-[2-(2-phenoxyphenyl)ethyl]-4-quinolinamine] | - (0-19% control at 400 ppm) | + (20-89% control at 400 ppm) | 60 | 0 | + (20-89% control at 400 ppm) | +++ (90-100% control at 100 ppm) | - (0-19% control at 400 ppm) | 0 | 0 | 0 | 0 | 0 | 0 | –
11 | Clc1ccc(CCNc2ccnc3c(Cl)cccc23)cc1 [Example 85, 8-chloro-N-[2-(4-chlorophenyl)ethyl]-4-quinolinamine] | - (0-19% control at 400 ppm) | + (20-89% control at 400 ppm) | 0 | 0 | - (0-19% control at 400 ppm) | - (0-19% control at 400 ppm) | - (0-19% control at 400 ppm) | 0 | 0 | 0 | 0 | 0 | 0 | –
12 | [O-][S+](CCc1ccccc1)c1ccnc2c(F)cccc12 (centres unmarked) [Example 264, 8-fluoro-4-[(2-phenylethyl)sulfinyl]quinoline] | – | – | – | – | – | – | – | – | – | – | – | – | – | pest or weed control at 400 ppm ([1]; Pyricularia oryzae, foliar, read-out: RICE BLAST, Test 1, foliar spray on rice, disease control rating at 400 ppm / 100 ppm): 0 to 19%; pest or weed control at 400 ppm ([2]; Puccinia recondita, foliar, Test 1, foliar spray on wheat, disease control rating at 400 ppm / 100 ppm): 20 to 89%; mortality at 200 ppm [3, 9]: 0%; mortality at 400 ppm [3, 10]: 0%; mortality at 200 ppm [4, 9]: 0%; mortality at 400 ppm [4, 10]: 0%; pest or weed control at 400 ppm ([5]; Blumeria graminis, foliar, Test 1, foliar spray on wheat, disease control rating at 400 ppm / 100 ppm, read-out: POWD MDEW): 0 to 19%; pest or weed control at 400 ppm ([7]; Botrytis cinerea, foliar, Test 1, spray on grape berries, disease control rating at 400 ppm / 100 ppm): 0 to 19%; mortality at 12 ppm (corn rootworm; CRW rate 12.00 ppm): 0%; mortality at 24 ppm (corn rootworm; CRW rate 24.00 ppm): 0%; mortality at 200 ppm [8, 9]: 0%; mortality at 400 ppm [8, 10]: 0%

From patent EP0326331B1, “Substituted quinolines and cinnolines” (Dow AgroSciences LLC, priority 1988, dated 1989)
